Experimental data as given in patent US20130040882A1, “USE OF FIBROBLAST GROWTH FACTOR FRAGMENTS” (NOVARTIS AG, priority 2003, published 2013).

System: transcript levels in tissues (GH/IGF and glucagon/insulin axes, SSTR signalling)
Assay type: in vivo, cynomolgus monkeys
[1] = RNA expression fold change, pituitary

Substance: cyclo[4-(NH2—C2H4—NH—CO—O)Pro-Phg-DTrp-Lys-Tyr(4-Bzl)-Phe] [SOM230]
- Core-binding factor, runt domain, α subunit 2; translocated to, 1; cyclin D-related ↑ [1]: D-related ↑ x3
- Cyclin D3 ↑ [1]: Cyclin D3 ↑ x2.5
- Cyclin F ↓ [1]: Cyclin F ↓ x2
- Dual specificity phosphatase 8 ↓ [1]: phosphatase 8 ↓ x3
- EGFRBP 2 ↓ [1]: EGFRBP 2 ↓ x1.5
- FGFR 2 ↓ [1]: FGFR 2 ↓ x2
- Fms-related tyrosine kinase 1 (VEGF/vascular permeability factor receptor) ↓ [1]: receptor) ↓ x1.5
- Forkhead box H1 ↑ [1]: Forkhead box H1↑ x2
- Forkhead box O3A ↓ [1]: ↓ x1.5
- G protein-coupled receptor, family C, group 5, member B ↑ [1]: 5, member B ↑ x2
- G-protein coupled receptor 9 ↑ [1]: receptor 9 ↑ x2.5
- G-protein coupled receptor 49 ↓ [1]: receptor 49 ↓ x2
- GABA-B R 1, isoform a precursor ↑ [1]: ↑ x1.5
- GFR bound protein 10 ↑ [1]: ↑ x1.5
- GLUR 2, precursor ↑ [1]: x1.5
- GTP-binding protein 11 ↑ [1]: ↑ x2.5
- GTP-binding protein (G protein), q polypeptide ↓ [1]: ↓ x2.5
- GTP-binding protein like-1 ↓ [1]: like-1 ↓ x3
- Gastrin receptor ↓ [1]: Gastrin receptor ↓ x2
- Glucagon receptor ↑ [1]: Glucagon receptor ↑ x7
- IFN stimulated gene ↑ [1]: ↑ x3.5
- IFNR2 (α, β and ω) ↓ [1]: ↓ x2.5
- IFNγ-inducible protein 30 (IP30) ↑ [1]: 30 (IP30) ↑ x1.5
- IGF-2 ↓ [1]: IGF-2 ↓ x1.5
- IGFBP, acid labile subunit ↑ [1]: subunit ↑ x3.5
- IP3 receptor, type 1 ↑ [1]: ↑ x1.5
- IP-4-phosphatase, type 1, isoform b ↓ [1]: 1, isoform b ↓ x2
- JAK 1 ↑ [1]: JAK 1 ↑ x2
- K+ channel, subfamily K, member 3 (TASK) ↓ [1]: ↓ x4
- K+ voltage-gated channel, Shab-related subfamily, member 1 ↓ [1]: subfamily, member 1 ↓ x2
- MAPKKK5 ↑ [1]: MAPKKK5 ↑ x2
- Neuroblastoma-amplified protein ↑ [1]: ↑ x1.5
- PDGFβ ↓ [1]: PDGFβ ↓ x2
- PI transfer protein, β ↓ [1]: ↓ x2.5
- PI-3-kinase, catalytic, α polypeptide ↓ [1]: polypeptide ↓ x3
- PI-3-kinase, catalytic, δ polypeptide ↓ [1]: ↓ x2
- PKC inhibitor ↑ [1]: PKC inhibitor ↑ x2
- PLCγ 1 ↓ [1]: PLCγ 1 ↓ x1.5
- PP 1, regulatory (inhibitor) subunit 5 ↑ [1]: ↑ x3.5
- PTP, receptor type, T ↑ [1]: ↑ x2
- Phosphatase and tensin homolog (mutated in multiple advanced cancers 1) ↓ [1]: 1) ↓ x3.5
- Programmed cell death 6 ↑ [1]: ↑ x1.5
- Putative Ca++ transporting ATPase ↑ [1]: transporting ATPase ↑ x2
- RAB 5C, member RAS oncogene family ↑ [1]: oncogene family ↑ x3
- Rab3 GTPase-activating protein, non catalytic subunit ↓ [1]: subunit ↓ x2
- Rab geranylgeranyltransferase, α subunit ↓ [1]: α subunit ↓ x1.5
- Rab geranyltransferase, β subunit ↑ [1]: β subunit ↑ x2
- Receptor (calcitonin) activity modifying protein 2 precursor ↑ [1]: 2 precursor ↑ x3.5
- Receptor tyrosine kinase-like orphan receptor 2 ↑ [1]: receptor 2 ↑ x2
- Regulator of G-protein signalling 9 ↑ [1]: ↑ x2
- S-phase response (cyclin-related) ↑ [1]: (cyclin-related) ↑ x2
- SHB adaptor protein (a Src homology 2 protein) ↓ [1]: ↓ x2.5
- SSTR3 ↑ [1]: SSTR3 ↑ x3
- STAT 1, 91kδ ↓ [1]: STAT 1, 91kδ ↓ x2
- Soluble adenylyl cyclase ↓ [1]: ↓ x2
- TNFR subfamily, member 14; herpesvirus entry mediator ↓ [1]: entry mediator ↓ x2.5
- TNFR-associated factor 2 ↓ [1]: 2 ↓ x4
- Thrombospondin-p50 ↓ [1]: ↓ x2
- Thyroid transcription factor 1 ↑ [1]: factor 1 ↑ x2.5
- VEGF B ↑ [1]: VEGF B ↑ x1.5
- Extra spindle poles, S. cerevisiae, homolog of ↓ (cynomolgus monkey, in vivo): ↓ x2.5
- Acetylserotonin O-methyl transferase-like expression ↓ (fold change) (kidney): transferase-like ↓ x3
- Adrenomedullin expression ↑ (fold change) (kidney): x1.5
- Angiotensin receptor 1B expression ↓ (fold change) (kidney): 1B ↓ x1.5
- Arginine vasopressin (neurophysin II, antidiuretic hormone, diabete insipidus, neurohypophyseal) expression ↑ (fold change) (kidney): ↑ x2
- CDC37 (cell division cycle 37, S. cerevisiae, homolog) expression ↑ (fold change) (kidney): homolog) ↑ x1.5
- CSF-1 receptor, formerly Mc Donough feline sarcoma viral (v-fms) oncogene homolog expression ↑ (fold change) (kidney): homolog ↑ x2.5
- Ca++ channel, voltage-dependent, α 1H subunit expression ↑ (fold change) (kidney): α 1H subunit ↑ x2
- Calcium/calmodulin-dependent protein kinase kinase 2, β expression ↑ (fold change) (kidney): ↑ x1.5
- Calmodulin 3 (phosphorylase kinase, δ) expression ↓ (fold change) (kidney): kinase, δ) ↓ x1.5
- Cdk 5, regulatory subunit 2 (p39) expression ↑ (fold change) (kidney): ↑ x1.5
- Cdki 1A (p21, Cip 1) expression ↑ (fold change) (kidney): Cip 1) ↑ x5
- Corticotropin releasing hormone receptor type 2 beta isoform expression ↑ (fold change) (kidney): isoform ↑ x1.5
- Death effector domain-containing expression ↓ (fold change) (kidney): ↓ x3.5
- Dopamine receptor D2 expression ↑ (fold change) (kidney): receptor D2 ↑ x4.5
- Fas/Apo-1/CD95 expression ↑ (fold change) (kidney): ↑ x1.5
- GABA (A) receptor, γ2 precursor expression ↑ (fold change) (kidney): precursor ↑ x2
- GFR-bound protein 7 expression ↑ (fold change) (kidney): protein 7 ↑ x2
- GFR-bound protein 14 expression ↑ (fold change) (kidney): protein 14 ↑ x2
- Gene expression (AvgDiff): IGF-1 (kidney): 25
- Gene expression (AvgDiff): IGF-2 (kidney): 49
- Gene expression (AvgDiff): IGFBP2 (kidney): 563
- Gene expression (AvgDiff): IR (kidney): 196
- Gene expression (AvgDiff): SSTR2 (kidney): 126
- Gene expression (AvgDiff): SSTR3 (kidney): 82
- Glucocorticoid receptor DNA binding factor 1 expression ↓ (fold change) (kidney): ↓ x4.5
- Glutamate receptor, metabotropic 2 precursor expression ↓ (fold change) (kidney): precursor ↓ x3
- Growth arrest-specific 6 expression ↑ (fold change) (kidney): specific 6 ↑ x1.5
- IGF-1 expression ↓ (fold change) (kidney): IGF-1 ↓ x2.5
- IGF-2 expression ↓ (fold change) (kidney): IGF-2 ↓ x2
- IGFBP2 expression ↑ (fold change) (kidney): IGFBP2 ↑ x1.5
- IL-7 R precursor expression ↑ (fold change) (kidney): ↑ x2
- IRF5 expression ↑ (fold change) (kidney): IRF5 ↑ x2
- Insulin receptor expression ↓ (fold change) (kidney): ↓ x3
- K+ voltage-gated channel, Shaw-related subfamily, member 3 expression ↑ (fold change) (kidney): member 3 ↑ x2.5
- LIF (cholinergic differentiation factor) expression ↑ (fold change) (kidney): factor) ↑ x2
- Na+ channel, nonvoltage-gated 1, β (Liddle syndrome) expression ↓ (fold change) (kidney): ↓ x2
- Natriuretic peptide receptor A/guanylate cyclase A (atrionatriuretic peptide receptor A) expression ↑ (fold change) (kidney): ↑ x2
- Opioid receptor, δ1 expression ↑ (fold change) (kidney): δ1 ↑ x2.5
- PDGFR, α polypeptide expression ↑ (fold change) (kidney): polypeptide ↑ x1.5
- PG-endoperoxide synthase 1 (prostaglandin G/H synthase and cyclooxygenase) expression ↓ (fold change) (kidney): x3.5
- PI-3-kinase, catalytic, α polypeptide expression ↓ (fold change) (kidney): polypeptide ↓ x3
- PP 3 (formerly 2B), catalytic subunit, β isoform (calcineurin A β) expression ↓ (fold change) (kidney): ↓ x2
- Putative chemokine receptor; GTP-binding protein expression ↑ (fold change) (kidney): ↑ x2
- SSTR2 expression ↑ (fold change) (kidney): SSTR 2↑ x2
- SSTR 3 expression ↑ (fold change) (kidney): SSTR 3↑ x3
- Solute carrier family 6 (neurotransmitter transporter, creatin), member 8 expression ↓ (fold change) (kidney): member 8 ↓ x3
- Solute carrier family 9 (Na+/H+ exchanger) isoform 3 regulatory factor 1 expression ↑ (fold change) (kidney): ↑ x2
- TGF, β1 expression ↑ (fold change) (kidney): TGF, β1 ↑ x1.5
- THR binding protein expression ↑ (fold change) (kidney): protein ↑x1.5
- THR, α (avian erythroblastic leukemia viral (v-erb-a) oncogene homolog) expression ↑ (fold change) (kidney): homolog) ↑x1.5
- THR-associated protein, 240kδ subunit expression ↓ (fold change) (kidney): subunit ↓ x1.5
- TNF, α-induced protein 3 expression ↓ (fold change) (kidney): ↓ x1.5
- TNFR superfamily, member 12 expression ↑ (fold change) (kidney): member 12 ↑ x2
- VWF precursor expression ↑ (fold change) (kidney): x2
- Vasopressin-activated calcium-mobilizing receptor-1 expression ↓ (fold change) (kidney): 1 ↓ x2
- δ sleep inducing peptide, immunoreactor expression ↑ (fold change) (kidney): x2.5
- 1-PI-4-phosphate 5-kinase isoform C expression ↓ (fold change) (liver): ↓ x2
- 5-hydroxytrypt amine (serotonine) receptor 6 expression ↑ (fold change) (liver): receptor 6 ↑ x2.5
